From ChEMBL document CHEMBL5380835, “Discovery of Clinically Used Octenidine as NRAS Repressor That Effectively Inhibits NRAS-Mutant Melanoma” (J Med Chem, 2023)
Active and inactive are the calls of the source. The rule behind the calls is not given here.

Assays:
SK-MEL-2 [1] = assay: Cytotoxicity against human SK-MEL-2 cells assessed as cell growth inhibition incubated for 24 hrs by MTT assay; assay type: functional, cell-based; settings: SK-MEL-2, 24 h
SK-MEL-2 [2] = assay: Cytotoxicity against human SK-MEL-2 cells expressing NRAS mutant assessed as cell growth inhibition incubated for 48 hrs by MTT assay; assay type: functional, cell-based; settings: SK-MEL-2, 48 h
SK-MEL-2 [3] = assay: Upregulation of NRAS mRNA level in human SK-MEL-2 cells at 1/2 times IC50 incubated for 24 hrs by RT-qPCR analysis; assay type: functional, cell-based
SK-MEL-2 [4] = assay: Effect on NRAS protein translation in human SK-MEL-2 cells at 1/2 times IC50 incubated for 24 hrs by Western blot analysis; assay type: functional, cell-based
SK-MEL-2 [5] = assay: Antiproliferative activity against human SK-MEL-2 cells assessed as inhibition of colony formation at 1.5 uM measured after 10 days by crystal violet staining based assay; assay type: functional, cell-based; settings: time 10.0 day
SK-MEL-2 [6] = assay: Synergistic cytotoxicity against human SK-MEL-2 cells expressing NRAS mutant assessed as combination index measured for 48 hrs in presence of MEK-162 by MTT assay; assay type: functional
SK-MEL-2 [7] = assay: Synergistic cytotoxicity against human SK-MEL-2 cells expressing NRAS mutant assessed as combination index measured for 48 hrs in presence of LY3214996 by MTT assay; assay type: functional
SK-MEL-2 [8] = assay: Synergistic cytotoxicity against human SK-MEL-2 cells expressing NRAS mutant assessed as combination index measured for 48 hrs in presence of Rapamycin by MTT assay; assay type: functional
SK-MEL-2 [9] = assay: Synergistic cytotoxicity against human SK-MEL-2 cells expressing NRAS mutant assessed as combination index measured for 48 hrs in presence of MK2206 by MTT assay; assay type: functional

| Structure (SMILES) | IC50 (SK-MEL-2 [1]) | IC50 (SK-MEL-2 [2]) | Activity (SK-MEL-2 [3]) | Activity (SK-MEL-2 [4]) | inhibition (SK-MEL-2 [5]) | CI (SK-MEL-2 [6]) | CI (SK-MEL-2 [7]) | CI (SK-MEL-2 [8]) | CI (SK-MEL-2 [9]) |
| --- | --- | --- | --- | --- | --- | --- | --- | --- | --- |
| Nc1ccc2cc3ccc(N)cc3nc2c1 [PROFLAVINE] | 5.31 µM | 1600 nM | Active | inactive |  |  |  |  |  |
| CO[C@H]1C[C@@H]2CC[C@@H](C)[C@@](O)(O2)C(=O)C(=O)N2CCCC[C@H]2C(=O)O[C@H]([C@H](C)C[C@@H]2CC[C@@H](O)[C@H](OC)C2)CC(=O)[C@H](C)/C=C(\C)[C@@H](O)[C@@H](OC)C(=O)[C@H](C)C[C@H](C)/C=C/C=C/C=C/1C [SIROLIMUS] |  |  |  |  | Active | 0.5 | 0.5 |  |  |
| Cn1nccc1Nc1nccc(-c2cc3c(s2)C(C)(C)N(CCN2CCOCC2)C3=O)n1 [TEMUTERKIB] |  |  |  |  | Active |  |  | 0.5 | 0.5 |
